Data taken from the supplement of paper PMC10331698.
± gives the standard deviation of the averaged measurements.

What was measured:
Experiment in all cases: level (log10 ratio to DMSO vehicle control); higher = higher biomarker level / cell amount than vehicle control
Conditions in all cases: in DMSO
[1] = compound: O=C(O)CCC(F)(F)C(F)(F)C(F)(F)F [3:3 Fluorotelomer carboxylic acid]
Procedure: (§1)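 BioMAP Diversity Plus panel of 12 human primary cell co-culture systems (3C, 4H, LPS, SAg, BT, BF4T, BE3C, CASM3C, HDF3CGF, KF3CT, MyoF, Mphg). Compounds were added 1 h before stimulation and left for 24 h (MyoF 48 h; BT 72 h for soluble read-outs or 6 d for IgG). Biomarkers were read by ELISA, cytotoxicity by SRB, PBMC viability and proliferation by Alamar Blue. Each well value was divided by the mean of 8 DMSO control wells on the same plate and log10 transformed; duplicate blinded samples were tested at 4 concentrations.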

[2] = compound: C=CC(=O)OCCC(F)(F)C(F)(F)C(F)(F)C(F)(F)F [2-(Perfluorobutyl)ethyl acrylate]
Procedure: as §1

[3] = compound: O=C(O)C(F)(F)OC(F)(F)C(F)(F)OC(F)(F)C(F)(F)C(F)(F)C(F)(F)F [Perfluoro-3,6-dioxadecanoic acid]
Procedure: as §1

| Test System | level (log10) ([1]; 6700 nM) | level (log10) ([1]; 20000 nM) | level (log10) ([1]; 60000 nM) | level (log10) ([2]; 6700 nM) | level (log10) ([2]; 20000 nM) | level (log10) ([2]; 60000 nM) | level (log10) ([3]; 6700 nM) | level (log10) ([3]; 20000 nM) | level (log10) ([3]; 60000 nM) |
| --- | --- | --- | --- | --- | --- | --- | --- | --- | --- |
| LPS:CD69 | -0.0345 ± 0.09 | -0.016 ± 0.052 | -0.0435 ± 0.061 | -0.0225 ± 0.015 | -0.017 ± 0.041 | -0.049 ± 0.041 | -0.009 ± 0.0099 | -0.0425 ± 0.026 | -0.191 ± 0.088 |
| LPS:CD106/VCAM-1 | -0.0155 ± 0.0078 | 0.011 ± 0.0028 | -0.0145 ± 0.029 | -0.028 ± 0.024 | -0.0465 ± 0.0035 | -0.141 ± 0.011 | 0.002 ± 0.037 | -0.0175 ± 0.035 | -0.092 ± 0.014 |
| LPS:CD141/Thrombomodulin | -0.0175 ± 0.022 | -0.001 ± 0.013 | 0.0035 ± 0.036 | -0.0365 ± 0.019 | -0.03 ± 0.014 | -0.038 ± 0.021 | 0.0245 ± 0.025 | 0.001 ± 0.04 | -0.0235 ± 0.0078 |
| LPS:CD142/Tissue Factor | -0.014 ± 0.0014 | -0.014 ± 0.011 | -0.0015 ± 0.019 | 0.027 ± 0.016 | -0.027 ± 0.088 | -0.177 ± 0.12 | 0.031 ± 0.054 | -0.029 ± 0.03 | -0.0375 ± 0.083 |
| LPS:CXCL8/IL-8 | 0.004 ± 0.0042 | -0.0105 ± 0.0021 | 0.0165 ± 0.03 | 0.0145 ± 0.015 | 0.0225 ± 0.012 | -0.015 ± 0.054 | -0.0175 ± 0.0092 | -0.0145 ± 0.013 | 0.018 ± 0.02 |
| LPS:IL-1alpha | -0.005 ± 0.0071 | -0.0245 ± 0.0078 | -0.0095 ± 0.029 | 0.009 ± 0.023 | 0.031 ± 0.013 | 0.02 ± 0.021 | -0.008 ± 0.0085 | -0.0225 ± 0.03 | -0.04 ± 0.013 |
| LPS:M-CSF | -0.0335 ± 0.052 | -0.0095 ± 0.016 | 0.0215 ± 0.033 | -0.0115 ± 0.0021 | -0.0085 ± 0.011 | -0.052 ± 0.085 | 0.006 ± 0.018 | -0.0115 ± 0.03 | -0.013 ± 0.0057 |
| LPS:SRB | -0.008 ± 0.0014 | -0.0025 ± 0.0064 | 0.0065 ± 0.0064 | 0.0015 ± 0.012 | -0.0015 ± 0.0035 | -0.013 ± 0.013 | -0.01 ± 0.014 | -0.0025 ± 0.005 | -0.105 ± 0.069 |
| LPS:sPGE2 | -0.0115 ± 0.0092 | -0.0165 ± 0.036 | 0.0205 ± 0.025 | -0.0675 ± 0.022 | -0.099 ± 0.0085 | -0.101 ± 0.021 | -0.105 ± 0.011 | -0.161 ± 0.0078 | -0.248 ± 0.03 |
| LPS:sTNF-alpha | -0.0235 ± 0.023 | -0.0195 ± 0.019 | -0.0115 ± 0.032 | -0.009 ± 0.014 | -0.0025 ± 0.018 | -0.0165 ± 0.025 | 0.012 ± 0.011 | 0.0155 ± 0.018 | 0.0135 ± 0.015 |
| SAg:CCL2/MCP-1 | 0.005 ± 0.0014 | -0.0145 ± 0.016 | 0.0145 ± 0.028 | -0.0205 ± 0.012 | -0.083 ± 0.0057 | -0.141 ± 0.035 | 0.017 ± 0.088 | -0.0255 ± 0.00071 | -0.0895 ± 0.026 |
| SAg:CD38 | -0.012 ± 0.024 | 0.008 ± 0.013 | 0.0015 ± 0.0035 | -0.007 ± 0.028 | -0.0105 ± 0.023 | -0.126 ± 0.0092 | -0.0115 ± 0.0021 | -0.021 ± 0.0057 | -0.061 ± 0.069 |
| SAg:CD40 | -0.002 ± 0.0071 | -0.008 ± 0.011 | -0.015 ± 0.0042 | -0.0225 ± 0.0064 | -0.0405 ± 0.0035 | -0.153 ± 0.018 | 0.003 ± 0.0028 | -0.0195 ± 0.016 | -0.08 ± 0.052 |
| SAg:CD62E/E-Selectin | -0.0265 ± 0.0021 | -0.0185 ± 0.032 | -0.007 ± 0.0085 | -0.0185 ± 0.012 | -0.1 ± 0.016 | -0.625 ± 0.068 | 0.027 ± 0.058 | 0.0485 ± 0.025 | 0.065 ± 0.081 |
| SAg:CD69 | 0.001 ± 0.04 | -0.005 ± 0.023 | -0.021 ± 0.0057 | -0.028 ± 0.0028 | -0.0845 ± 0.026 | -0.225 ± 0.037 | 0 ± 0.013 | -0.0405 ± 0.00071 | -0.105 ± 0.067 |
| SAg:CXCL8/IL-8 | -0.0145 ± 0.00071 | -0.016 ± 0.011 | -0.0035 ± 0.013 | -0.029 ± 0.0099 | -0.103 ± 0.013 | -0.31 ± 0.064 | -0.018 ± 0.0028 | -0.0295 ± 0.018 | -0.0385 ± 0.022 |
| SAg:CXCL9/MIG | 0.001 ± 0.0028 | -0.009 ± 0.0014 | 0.001 ± 0.014 | -0.007 ± 0.016 | 0.001 ± 0.0057 | -0.004 ± 0.013 | -0.0095 ± 0.016 | -0.0135 ± 0.013 | 0.01 ± 0.0042 |
